The term EC50 denotes the midpoint of the concentration-response curve. A lower EC50 goes with a more potent agent.

Data on 22 compounds can be found in patent US20250171457A1, “NITROGEN-CONTAINING HETEROCYCLIC COMPOUND HAVING NRF2 ACTIVATION EFFECT” (CHUGAI SEIYAKU KABUSHIKI KAISHA, priority 2022, published 2025).

This experiment relates to Nrf2 transcriptional activity (pARE-Luc reporter) in HepG2 cells. Description: In vitro Nrf2 transcriptional activity measurement by ARE-dependent reporter assay in HepG2 cell. It is filed as cell-based, human. The following applies: Homo sapiens; HepG2 cells transfected with pARE-Luc, 4 hours at 37° C.; luciferase activity of Example 1-54 or Example 17-23 at 3.75 μM defined as 100%. A digest of the protocol: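 HepG2 cells transfected with pGL4.37 (pARE-Luc), replated onto compound and incubated 4 h at 37° C; luciferase read by Bright-Glo luminescence. Response normalized to 100% set by a reference compound at 3.75 μM; EC50 from dose-response curve.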
(In general: Reporter assays use an easily measured gene product as a stand-in for the process of interest.)
In turn, `O=C(O)c1cc(F)c(-c2cccc3c2OCN(C(=O)c2c(Cl)cc(N4CC(N5CCOCC5)C4)cc2Cl)C3)cc1N1C2CCC1COC2` [Compound 4-58, 4-[3-[2,6-Dichloro-4-(3-morpholin-4-ylazetidin-1-yl)benzoyl]-2,4-dihydro-1,3-benzoxazin-8-yl]-5-fluoro-2-(3-oxa-8-azabicyclo[3.2.1]octan-8-yl)benzoic acid] yielded an EC50 of 5.2 nM. With `O=C(O)c1cc(F)c(-c2cccc3c2OCN(C(=O)c2c(Cl)cc(N4CCN(C5COC5)CC4)cc2Cl)C3)cc1N1C2CCC1COC2` [Compound 4-59, 4-[3-[2,6-Dichloro-4-[4-(oxetan-3-yl)piperazin-1-yl]benzoyl]-2,4-dihydro-1,3-benzoxazin-8-yl]-5-fluoro-2-(3-oxa-8-azabicyclo[3.2.1]octan-8-yl)benzoic acid], the EC50 was determined as 12 nM. As for `CN1CCN(c2cc(Cl)c(C(=O)N3COc4c(cccc4-c4cc(N5C6CCC5COC6)c(C(=O)O)cc4F)C3)c(Cl)c2)CC1` [Compound 4-60, 4-[3-[2,6-Dichloro-4-(4-methylpiperazin-1-yl)benzoyl]-2,4-dihydro-1,3-benzoxazin-8-yl]-5-fluoro-2-(3-oxa-8-azabicyclo[3.2.1]octan-8-yl)benzoic acid], the figure is 7.5 nM; as for `COC1COC2(CN(c3cc(Cl)c(C(=O)N4COc5c(cccc5-c5cc(N6C7CCC6COC7)c(C(=O)O)cc5F)C4)c(Cl)c3)C2)OC1` [Compound 5-3, 4-[3-[2,6-Dichloro-4-(7-methoxy-5,9-dioxa-2-azaspiro[3.5]nonan-2-yl)benzoyl]-2,4-dihydro-1,3-benzoxazin-8-yl]-5-fluoro-2-(3-oxa-8-azabicyclo[3.2.1]octan-8-yl)benzoic acid], 9.5 nM. Then `O=C(O)c1cc(F)c(-c2cccc3c2OCN(C(=O)c2c(Cl)cc(N4CC5(C4)OCCO5)cc2Cl)C3)cc1N1C2CCC1COC2` [Compound 5-4, 4-[3-[2,6-Dichloro-4-(5,8-dioxa-2-azaspiro[3.4]octan-2-yl)benzoyl]-2,4-dihydro-1,3-benzoxazin-8-yl]-5-fluoro-2-(3-oxa-8-azabicyclo[3.2.1]octan-8-yl)benzoic acid], with 2.4 nM; and `O=C(O)c1cc(F)c(-c2cccc3c2OCN(C(=O)c2c(Cl)cc(N4CC5(C4)OCC4(CC4)CO5)cc2Cl)C3)cc1N1C2CCC1COC2` [Compound 5-5, 4-[3-[2,6-Dichloro-4-(5,10-dioxa-8-azaspiro[2.2.36.23]undecan-8-yl)benzoyl]-2,4-dihydro-1,3-benzoxazin-8-yl]-5-fluoro-2-(3-oxa-8-azabicyclo[3.2.1]octan-8-yl)benzoic acid], with 1 nM; and `O=C(O)c1cc(F)c(-c2cccc3c2OCN(C(=O)c2c(Cl)cc(N4CC5(C4)OCCCCO5)cc2Cl)C3)cc1N1C2CCC1COC2` [Compound 5-6, 4-[3-[2,6-Dichloro-4-(5,10-dioxa-2-azaspiro[3.6]decan-2-yl)benzoyl]-2,4-dihydro-1,3-benzoxazin-8-yl]-5-fluoro-2-(3-oxa-8-azabicyclo[3.2.1]octan-8-yl)benzoic acid], with 2.3 nM. As for `O=C(O)c1cc(F)c(-c2cccc3c2OCN(C(=O)c2c(Cl)cc(N4CC5(C4)OCC4(CCC4)CO5)cc2Cl)C3)cc1N1C2CCC1COC2` [Compound 5-8, 4-[3-[2,6-Dichloro-4-(6,11-dioxa-9-azadispiro[3.2.37.24]dodecan-9-yl)benzoyl]-2,4-dihydro-1,3-benzoxazin-8-yl]-5-fluoro-2-(3-oxa-8-azabicyclo[3.2.1]octan-8-yl)benzoic acid], the figure is 2 nM. Turning to `COC1(OC)CC2(CN(c3cc(Cl)c(C(=O)N4COc5c(cccc5-c5cc(N6C7CCC6COC7)c(C(=O)O)cc5F)C4)c(Cl)c3)C2)C1` [Compound 5-11, 4-[3-[2,6-Dichloro-4-(6,6-dimethoxy-2-azaspiro[3.3]heptan-2-yl)benzoyl]-2,4-dihydro-1,3-benzoxazin-8-yl]-5-fluoro-2-(3-oxa-8-azabicyclo[3.2.1]octan-8-yl)benzoic acid], the concentration for a half-maximal effect (EC50) was 3.4 nM.

Take `COC1(OC)CN(c2cc(Cl)c(C(=O)N3COc4c(cccc4-c4cc(N5C6CCC5COC6)c(C(=O)O)cc4F)C3)c(Cl)c2)[C@@H]1C` [Compound 5-12, 4-[3-[2,6-Dichloro-4-[(2R)-3,3-dimethoxy-2-methylazetidin-1-yl]benzoyl]-2,4-dihydro-1,3-benzoxazin-8-yl]-5-fluoro-2-(3-oxa-8-azabicyclo[3.2.1]octan-8-yl)benzoic acid]: the EC50 was 2.1 nM. In turn, `COC1CN(C2CN(c3cc(Cl)c(C(=O)N4COc5c(cccc5-c5cc(N6C7CCC6COC7)c(C(=O)O)cc5F)C4)c(Cl)c3)C2)C1` [Compound 5-13, 4-[3-[2,6-Dichloro-4-[3-(3-methoxyazetidin-1-yl)azetidin-1-yl]benzoyl]-2,4-dihydro-1,3-benzoxazin-8-yl]-5-fluoro-2-(3-oxa-8-azabicyclo[3.2.1]octan-8-yl)benzoic acid] registered an EC50 of 2.7 nM.

`C[C@H]1COCCN1C1CN(c2cc(Cl)c(C(=O)N3COc4c(cccc4-c4cc(N5C6CCC5COC6)c(C(=O)O)cc4F)C3)c(Cl)c2)C1` [Compound 5-14, 4-[3-[2,6-Dichloro-4-[3-[(3S)-3-methylmorpholin-4-yl]azetidin-1-yl]benzoyl]-2,4-dihydro-1,3-benzoxazin-8-yl]-5-fluoro-2-(3-oxa-8-azabicyclo[3.2.1]octan-8-yl)benzoic acid] displayed an EC50 of 2.9 nM.

`C[C@@H]1COCCN1C1CN(c2cc(Cl)c(C(=O)N3COc4c(cccc4-c4cc(N5C6CCC5COC6)c(C(=O)O)cc4F)C3)c(Cl)c2)C1` [Compound 5-15, 4-[3-[2,6-Dichloro-4-[3-[(3R)-3-methylmorpholin-4-yl]azetidin-1-yl]benzoyl]-2,4-dihydro-1,3-benzoxazin-8-yl]-5-fluoro-2-(3-oxa-8-azabicyclo[3.2.1]octan-8-yl)benzoic acid] displayed a concentration for a half-maximal effect (EC50) of 3.1 nM.

With `COCC1(OC)CN(c2cc(Cl)c(C(=O)N3COc4c(cccc4-c4cc(N5C6CCC5COC6)c(C(=O)O)cc4F)C3)c(Cl)c2)C1` [Compound 6-1, 4-[3-[2,6-Dichloro-4-[3-methoxy-3-(methoxymethyl)azetidin-1-yl]benzoyl]-2,4-dihydro-1,3-benzoxazin-8-yl]-5-fluoro-2-(3-oxa-8-azabicyclo[3.2.1]octan-8-yl)benzoic acid], the EC50 turned out to be 2.1 nM. For `COC1(C(F)(F)F)CN(c2cc(Cl)c(C(=O)N3COc4c(cccc4-c4cc(N5C6CCC5COC6)c(C(=O)O)cc4F)C3)c(Cl)c2)C1` [Compound 6-2, 4-[3-[2,6-Dichloro-4-[3-methoxy-3-(trifluoromethyl)azetidin-1-yl]benzoyl]-2,4-dihydro-1,3-benzoxazin-8-yl]-5-fluoro-2-(3-oxa-8-azabicyclo[3.2.1]octan-8-yl)benzoic acid], a half-maximal response (EC50) required 2.8 nM. Compound `O=C(O)c1cc(F)c(-c2cccc3c2OCN(C(=O)c2c(Cl)cc(N4CC(OCC(F)(F)F)C4)cc2Cl)C3)cc1N1C2CCC1COC2` [Compound 6-3, 4-[3-[2,6-Dichloro-4-[3-(2,2,2-trifluoroethoxy)azetidin-1-yl]benzoyl]-2,4-dihydro-1,3-benzoxazin-8-yl]-5-fluoro-2-(3-oxa-8-azabicyclo[3.2.1]octan-8-yl)benzoic acid] gave a half-maximal effective concentration (EC50) of 5.7 nM. `COCC1(F)CN(c2cc(Cl)c(C(=O)N3COc4c(cccc4-c4cc(N5C6CCC5COC6)c(C(=O)O)cc4F)C3)c(Cl)c2)C1` [Compound 6-4, 4-[3-[2,6-Dichloro-4-[3-fluoro-3-(methoxymethyl)azetidin-1-yl]benzoyl]-2,4-dihydro-1,3-benzoxazin-8-yl]-5-fluoro-2-(3-oxa-8-azabicyclo[3.2.1]octan-8-yl)benzoic acid] showed an EC50 of 2 nM. `CCOC1CN(c2cc(Cl)c(C(=O)N3COc4c(cccc4-c4cc(N5C6CCC5COC6)c(C(=O)O)cc4F)C3)c(Cl)c2)C1` [Compound 6-5, 4-[3-[2,6-Dichloro-4-(3-ethoxyazetidin-1-yl)benzoyl]-2,4-dihydro-1,3-benzoxazin-8-yl]-5-fluoro-2-(3-oxa-8-azabicyclo[3.2.1]octan-8-yl)benzoic acid] displayed an EC50 of 10 nM.

For the compound `CC(C)OC1CN(c2cc(Cl)c(C(=O)N3COc4c(cccc4-c4cc(N5C6CCC5COC6)c(C(=O)O)cc4F)C3)c(Cl)c2)C1` [Compound 6-6, 4-[3-[2,6-Dichloro-4-(3-propan-2-yloxy-azetidin-1-yl)benzoyl]-2,4-dihydro-1,3-benzoxazin-8-yl]-5-fluoro-2-(3-oxa-8-azabicyclo[3.2.1]octan-8-yl)benzoic acid], the EC50 was 12 nM. The compound `O=C(O)c1cc(F)c(-c2cccc3c2OCN(C(=O)c2c(Cl)cc(N4CC(OC5COC5)C4)cc2Cl)C3)cc1N1C2CCC1COC2` [Compound 6-7, 4-[3-[2,6-Dichloro-4-[3-(oxetan-3-yloxy)azetidin-1-yl]benzoyl]-2,4-dihydro-1,3-benzoxazin-8-yl]-5-fluoro-2-(3-oxa-8-azabicyclo[3.2.1]octan-8-yl)benzoic acid] gave a half-maximal effective concentration (EC50) of 5.7 nM. Then `COCCOC1CN(c2cc(Cl)c(C(=O)N3COc4c(cccc4-c4cc(N5C6CCC5COC6)c(C(=O)O)cc4F)C3)c(Cl)c2)C1` [Compound 6-8, 4-[3-[2,6-Dichloro-4-[3-(2-methoxyethoxy)azetidin-1-yl]benzoyl]-2,4-dihydro-1,3-benzoxazin-8-yl]-5-fluoro-2-(3-oxa-8-azabicyclo[3.2.1]octan-8-yl)benzoic acid], with 2.4 nM; and `COCCOC1CC2(C1)CN(c1cc(Cl)c(C(=O)N3COc4c(cccc4-c4cc(N5C6CCC5COC6)c(C(=O)O)cc4F)C3)c(Cl)c1)C2` [Compound 6-9, 4-[3-[2,6-Dichloro-4-[6-(2-methoxyethoxy)-2-azaspiro[3.3]heptan-2-yl]benzoyl]-2,4-dihydro-1,3-benzoxazin-8-yl]-5-fluoro-2-(3-oxa-8-azabicyclo[3.2.1]octan-8-yl)benzoic acid], with 2.2 nM.
